Measurements as given in PubChem BioAssay (NCI).
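Results reflect a 48-hour exposure of cells in 96-well plates to compound at five concentrations. GI50 is the concentration that inhibits growth by half. TGI: total growth inhibition.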

Tests used:
Test in all cases: DTP human tumour cell line panel, 48 h
[1] = test system: UO-31 renal
[2] = test system: MDA-MB-231 breast
[3] = test system: NCI-H226 lung
[4] = test system: NCI/ADR-RES ovarian
[5] = test system: 786-0 renal
[6] = test system: K-562 leukemia
[7] = test system: HOP-92 NSCLC
[8] = test system: SF-268 CNS
[9] = test system: ACHN renal
[10] = test system: UACC-62 melanoma

Row | Compound | GI50 [1] [µM] | TGI [1] [µM] | GI50 [2] [µM] | TGI [2] [µM] | GI50 [3] [µM] | TGI [3] [µM] | GI50 [4] [µM] | TGI [4] [µM] | GI50 [5] [µM] | TGI [5] [µM] | GI50 [6] [µM] | TGI [6] [µM] | GI50 [7] [µM] | TGI [7] [µM] | GI50 [8] [µM] | TGI [8] [µM] | GI50 [9] [µM] | TGI [9] [µM] | GI50 [10] [µM] | TGI [10] [µM]
1 | C=C1CC[C@@]2(C#N)[C@H]3[C@H](CC[C@@H]2C)[C@@H](C)C[C@@H](CC(C)(C)C#N)[C@H]13 | 0.363 | 19.3 | 6.1 | 35.8 | 2.43 | 24.1 | 2.87 | 24.6 | 2.33 | 23.3 | 0.46 | > 100 | 0.2 | 0.68 | 2.34 | 35.3 | 1.03 | 14.7 | 2.45 | 16.7
2 | c1cc2c(cc1C(N1CCNCC1)N1CCNCC1)OCO2 | – | > 100 | – | > 100 | – | > 100 | – | > 100 | – | > 100 | – | 5.6 | – | > 100 | – | > 100 | – | > 100 | – | > 100
3 | Cc1ccccc1CN1CC2=C(CCN(Cc3ccccc3)C2=O)N2CCN=C12 | – | > 100 | – | > 80 | – | > 100 | – | > 100 | – | > 100 | – | > 100 | – | > 100 | – | > 100 | – | > 100 | – | > 100
4 | c1ccc2[nH]c(SSc3nc4ncncc4[nH]3)nc2c1 | 0.559 | > 30.9 | 2.9 | > 100 | 9.52 | > 100 | 1.74 | > 100 | 0.463 | > 100 | 0.278 | > 100 | 0.375 | > 90.8 | 4.13 | > 100 | 4.14 | > 100 | 0.729 | > 100
5 | Cc1ccccc1C(=O)C#Cc1cn(C2CC(O)C(CO)O2)c(=O)[nH]c1=O (stereo not given) | – | > 100 | – | > 100 | – | > 100 | – | > 100 | – | > 100 | – | > 100 | – | > 100 | – | > 100 | – | > 100 | – | > 100
6 | CN(C)CCCN=C(N)N | – | > 100 | – | > 100 | – | > 100 | – | > 100 | – | > 100 | – | > 100 | – | > 100 | – | > 100 | – | > 100 | – | > 100
7 | COc1cc(Cl)cc(-c2nn(C(=O)NCCN3CCN(C)CC3)cc2-c2ccncc2)c1 | 11.6 | 62 | 9.7 | 43.5 | 4.29 | 57.3 | 19.8 | 88.5 | 5.99 | 25.6 | 28.5 | > 100 | 2.83 | 26.2 | 7.35 | > 100 | 4.16 | > 100 | 4.95 | 20.3
